Several values for one entry are separate records, joined by “and”; a condition that tells them apart may be missing. Equal values may be shown once. Toxic doses and inconclusive results are not listed. How the source made its calls: active means survival T/C of 150% or more; inactive means T/C below 125% in these data.
System: P388 leukemia ip, CD2F1 mice, survival T/C
Assay: NCI In Vivo Anticancer Drug Screen. Data for tumor model P388 Leukemia (intraperitoneal) in CD2F1 (CDF1) mice
Conditions: endpoint: median survival time, higher = longer survival
Outline: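 Mice carrying the transplanted tumor received test compound or vehicle. Survival was recorded in each group, and the value is the treated-group measurement divided by that of the vehicle-treated control group.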

[1] = dose: 50.0 mg/kg/injection, schedule: Q01DX005 (ip), vehicle: Klucel (hydroxypropylcellulose) (HPC)
[2] = dose: 100.0 mg/kg/injection, schedule: Q01DX005 (ip), vehicle: Klucel (hydroxypropylcellulose) (HPC)
[3] = dose: 200.0 mg/kg/injection, schedule: Q01DX005 (ip), vehicle: Klucel (hydroxypropylcellulose) (HPC)
[4] = dose: 12.5 mg/kg/injection, schedule: Q01DX005 (ip), vehicle: saline with Tween-80
[5] = dose: 25.0 mg/kg/injection, schedule: Q01DX005 (ip), vehicle: saline with Tween-80
[6] = dose: 60.0 mg/kg/injection, schedule: Q01DX005 (ip), vehicle: saline with Tween-80
[7] = dose: 120.0 mg/kg/injection, schedule: Q01DX005 (ip), vehicle: saline with Tween-80
[8] = dose: 240.0 mg/kg/injection, schedule: Q01DX005 (ip), vehicle: saline with Tween-80
[9] = dose: 60.0 mg/kg/injection, schedule: Q01DX005 (ip), vehicle: saline
[10] = dose: 12.5 mg/kg/injection, schedule: Q01DX009 (ip), vehicle: saline with Tween-80
[11] = dose: 25.0 mg/kg/injection, schedule: Q01DX009 (ip), vehicle: saline with Tween-80
[12] = dose: 50.0 mg/kg/injection, schedule: Q01DX009 (ip), vehicle: saline with Tween-80
[13] = dose: 100.0 mg/kg/injection, schedule: Q01DX009 (ip), vehicle: saline with Tween-80
[14] = dose: 50.0 mg/kg/injection, schedule: Q01DX005 (ip), vehicle: saline
[15] = dose: 100.0 mg/kg/injection, schedule: Q01DX005 (ip), vehicle: saline
[16] = dose: 200.0 mg/kg/injection, schedule: Q01DX005 (ip), vehicle: saline
[17] = dose: 50.0 mg/kg/injection, schedule: Q01DX005 (ip), vehicle: saline with Tween-80
[18] = dose: 100.0 mg/kg/injection, schedule: Q04DX003 (ip), vehicle: saline with Tween-80
[19] = dose: 200.0 mg/kg/injection, schedule: Q04DX003 (ip), vehicle: saline with Tween-80
[20] = dose: 400.0 mg/kg/injection, schedule: Q04DX003 (ip), vehicle: saline with Tween-80

Measured: T/C

CC(C)CC1CC(=O)C(=O)C(CC(C)C)C1 (stereo not given)
inactive: [1] 95 % of control | [2] 97 % of control | [3] 110 % of control

C/C(=N\NC(=S)N1CCN(c2ccccn2)CC1)c1cccc(C)n1
inactive: dose: 6.25 mg/kg/injection, schedule: Q01DX005 (ip), vehicle: saline with Tween-80 101 % of control and 107 % of control | [4] 103 % of control and 124 % of control | [5] 118 % of control

CS(=O)(=O)C(c1nc2nnc(NC(=O)Nc3ccc(Cl)cc3)n2[nH]c1=O)c1nc2nnc(NC(=O)Nc3ccc(Cl)cc3)n2[nH]c1=O
inactive: [6] 104 % of control | [7] 100 % of control | [8] 98 % of control

O=c1nc2n(CC(O)CN3CCCCC3)c3cc(Cl)ccc3nc-2c(=O)[nH]1 (stereo not given)
inactive: dose: 6.25 mg/kg/injection, schedule: Q01DX005 (ip), vehicle: saline 103 % of control | dose: 12.5 mg/kg/injection, schedule: Q01DX005 (ip), vehicle: saline 106 % of control

COP(=O)(CC(=O)CCCCC1OCCO1)OC
inactive: [9] 110 % of control | dose: 120.0 mg/kg/injection, schedule: Q01DX005 (ip), vehicle: saline 105 % of control | dose: 240.0 mg/kg/injection, schedule: Q01DX005 (ip), vehicle: saline 100 % of control

Cc1cccc(C(=O)NN)c1O
inactive: [10] 98 % of control | [11] 104 % of control | [12] 104 % of control | [13] 101 % of control

C/C(=N/N=C(N)N)c1cn(C(=N)N)nc1C
inactive: dose: 7.5 mg/kg/injection, schedule: Q01DX005 (ip), vehicle: saline 100 % of control and 101 % of control | dose: 15.0 mg/kg/injection, schedule: Q01DX005 (ip), vehicle: saline 109 % of control and 95 % of control | dose: 30.0 mg/kg/injection, schedule: Q01DX005 (ip), vehicle: saline 101 % of control and 95 % of control | [9] 101 % of control and 107 % of control | dose: 120.0 mg/kg/injection, schedule: Q01DX005 (ip), vehicle: Klucel (hydroxypropylcellulose) (HPC) 99 % of control | dose: 240.0 mg/kg/injection, schedule: Q01DX005 (ip), vehicle: Klucel (hydroxypropylcellulose) (HPC) 117 % of control

Cc1cc2[nH]c3c(C#N)c(O)c(C(C)C)c(=O)n3c2cc1C
inactive: [6] 103 % of control | [7] 100 % of control | [8] 94 % of control

O=C1CSC(c2ccc(F)c(F)c2)N1c1nncs1 (stereo not given)
inactive: [6] 99 % of control | [7] 101 % of control | [8] 101 % of control

CC(c1ccccc1)c1cc(C(C)(C)C)cc(C(C)(C)C)c1O (stereo not given)
inactive: dose: 50.0 mg/kg/injection, schedule: Q01DX005 (ip), vehicle: distilled water + alcohol 96 % of control | dose: 100.0 mg/kg/injection, schedule: Q01DX005 (ip), vehicle: distilled water + alcohol 100 % of control | dose: 200.0 mg/kg/injection, schedule: Q01DX005 (ip), vehicle: distilled water + alcohol 99 % of control

CN1CCC/C1=C\C(=O)c1ccncc1
inactive: [14] 96 % of control | [15] 112 % of control | [16] 124 % of control

CNc1nc(=S)nc(-c2ccccc2)s1
inactive: [17] 100 % of control | dose: 100.0 mg/kg/injection, schedule: Q01DX005 (ip), vehicle: saline with Tween-80 106 % of control | dose: 200.0 mg/kg/injection, schedule: Q01DX005 (ip), vehicle: saline with Tween-80 92 % of control

CCOc1nc(N)c(C(=O)c2ccc(O)c(O)c2)s1
inactive: [1] 111 % of control | [2] 109 % of control | [3] 87 % of control

COc1cc(OC)c(Br)cc1C
inactive: [10] 100 % of control | [11] 91 % of control | [12] 91 % of control | [18] 104 % of control | [19] 104 % of control | [20] 104 % of control

C[C@]12CC[C@H](O)CC1CC[C@@H]1C2CC[C@]2(C)NC(=O)CCC12 (stereo not given in full)
inactive: dose: 100.0 mg/kg/injection, schedule: Q01DX001 (ip), vehicle: saline with Tween-80 108 % of control | dose: 200.0 mg/kg/injection, schedule: Q01DX001 (ip), vehicle: saline with Tween-80 108 % of control | dose: 400.0 mg/kg/injection, schedule: Q01DX001 (ip), vehicle: saline with Tween-80 120 % of control

CC(=O)Nc1cccc2c1C(=O)c1nccnc1C2=O
inactive: dose: 12.5 mg/kg/injection, schedule: Q04DX002 (ip), vehicle: Klucel + Tween-80 99 % of control | dose: 25.0 mg/kg/injection, schedule: Q04DX002 (ip), vehicle: Klucel + Tween-80 98 % of control | dose: 50.0 mg/kg/injection, schedule: Q04DX002 (ip), vehicle: Klucel + Tween-80 91 % of control

Cc1ccc2cccnc2c1NCCCCCNC(C)C
inactive: [4] 97 % of control | [5] 100 % of control | [17] 100 % of control and 97 % of control

CN1CCC(c2ccccc2)(c2ccccc2)OC1
inactive: dose: 25.0 mg/kg/injection, schedule: Q01DX009 (ip), vehicle: saline 100 % of control | dose: 50.0 mg/kg/injection, schedule: Q01DX009 (ip), vehicle: saline 100 % of control | dose: 100.0 mg/kg/injection, schedule: Q01DX009 (ip), vehicle: saline 113 % of control

CC(=O)/C=C\c1ccc(Cl)cc1
inactive: [12] 100 % of control | [13] 91 % of control | [18] 113 % of control | [19] 98 % of control | [20] 91 % of control

CCCCN(C)C(=S)N/N=C(\C)c1ccccn1
inactive: dose: 6.25 mg/kg/injection, schedule: Q01DX009 (ip), vehicle: saline with Tween-80 98 % of control | [10] 101 % of control | [11] 111 % of control

O=C(O)CC(=O)N=c1snc(Nc2ccccc2)n1-c1ccccc1
inactive: dose: 6.25 mg/kg/injection, schedule: Q01DX009 (ip), vehicle: Klucel (hydroxypropylcellulose) (HPC) 101 % of control | dose: 12.5 mg/kg/injection, schedule: Q01DX009 (ip), vehicle: Klucel (hydroxypropylcellulose) (HPC) 102 % of control | dose: 25.0 mg/kg/injection, schedule: Q01DX009 (ip), vehicle: Klucel (hydroxypropylcellulose) (HPC) 99 % of control

O=C1OC[C@@H]2C=CC[C@H]12
inactive: [14] 100 % of control | [15] 100 % of control | [16] 107 % of control

CCOP(=S)(N/N=C/c1ccc(C)s1)OCC
inactive: [1] 110 % of control | [2] 112 % of control | [3] 117 % of control

Nc1nc(N)c2cc(C=O)ccc2n1
inactive: dose: 0.39 mg/kg/injection, schedule: Q01DX009 (ip), vehicle: distilled water + Tween-80 100 % of control | dose: 0.78 mg/kg/injection, schedule: Q01DX009 (ip), vehicle: distilled water + Tween-80 101 % of control | dose: 1.56 mg/kg/injection, schedule: Q01DX009 (ip), vehicle: distilled water + Tween-80 110 % of control | dose: 3.13 mg/kg/injection, schedule: Q01DX009 (ip), vehicle: distilled water + Tween-80 100 % of control | dose: 6.25 mg/kg/injection, schedule: Q01DX009 (ip), vehicle: distilled water + Tween-80 109 % of control

CCOC(=O)C(C)(C)CN(CC(C)(C)C(=O)OCC)C(C)(C)C
inactive: [18] 109 % of control | [19] 109 % of control | [20] 122 % of control

Source: PubChem BioAssay AID330 (DTP/NCI, 2004)
